{"source": "ChEMBL document CHEMBL4000174", "about": "“Synthesis and antitumor activity of novel substituted uracil-1'(N)-acetic acid ester derivatives of 20(S)-camptothecins” (Eur J Med Chem, 2017)", "key": {"[1]": {"tested_on": "A549", "assay": "Antiproliferative activity against human A549 cells after 96 hrs by MTT assay", "type": "functional, cell-based", "details": "A549, 96 h"}, "[2]": {"tested_on": "Bel-7402", "assay": "Antiproliferative activity against human Bel7402 cells after 96 hrs by MTT assay", "type": "functional, cell-based", "details": "Bel-7402, 96 h"}, "[3]": {"tested_on": "HCT-8", "assay": "Antiproliferative activity against human HCT8 cells after 96 hrs by MTT assay", "type": "functional, cell-based", "details": "HCT-8, 96 h"}, "[4]": {"tested_on": "Mus musculus", "assay": "Toxicity in BALB/c nude mouse xenografted with human BGC823 cells assessed as body weight at 60 mg/kg, ip administered once in a week for two weeks starting from 6 days post tumor transplantation and measured every 3 days during compound dosing for 15 days (reference value: 23.6 g)", "type": "organism-based", "details": "in vivo, 360 h"}, "[5]": {"tested_on": "Mus musculus", "assay": "Toxicity in BALB/c nude mouse xenografted with human BGC823 cells assessed as body weight at 30 mg/kg, ip administered once in a week for two weeks starting from 6 days post tumor transplantation and measured every 3 days during compound dosing for 15 days (reference value: 23.6 g)", "type": "organism-based", "details": "in vivo, 360 h"}, "[6]": {"tested_on": "BGC-823", "assay": "Antitumor activity against human BGC823 cells xenografted in BALB/c nude mouse assessed as tumor growth inhibition at 30 mg/kg, ip administered once in a week for two weeks starting from 6 days post tumor transplantation measured 27 to 30 days post tumor transplantation relative to control", "type": "functional", "details": "BGC-823, ip, read-out: TGI"}, "[7]": {"tested_on": "Mus musculus", "assay": "Toxicity in Kunming mouse implanted with mouse H22 cell assessed as survival at 40 mg/kg, ip administered on day 1 and day 5", "type": "organism-based", "details": "in vivo"}, "[8]": {"tested_on": "BGC-823", "assay": "Antitumor activity against human BGC823 cells xenografted in BALB/c nude mouse assessed as tumor volume at 60 mg/kg, ip administered once in a week for two weeks starting from 6 days post tumor transplantation measured 27 to 30 days post tumor transplantation relative to control", "type": "functional"}, "[9]": {"tested_on": "BGC-823", "assay": "Antitumor activity against human BGC823 cells xenografted in BALB/c nude mouse assessed as tumor volume at 30 mg/kg, ip administered once in a week for two weeks starting from 6 days post tumor transplantation measured 27 to 30 days post tumor transplantation relative to control", "type": "functional"}, "[10]": {"tested_on": "A549", "assay": "Induction of apoptosis in human A549 cells assessed as viable cells at 8 nM after 24 hrs by Annexin V-FITC/propidium iodide staining based flow cytometry (reference value: 89.41%)", "type": "functional", "details": "A549, 24 h, read-out: Activity"}, "[11]": {"tested_on": "A549", "assay": "Cell cycle arrest in human A549 cells assessed as accumulation at G0/G1 phase at 8 nM after 24 hrs by propidium iodide staining based flow cytometry (reference value: 58.84%)", "type": "functional"}, "[12]": {"tested_on": "A549", "assay": "Cell cycle arrest in human A549 cells assessed as accumulation at S phase at 8 nM after 24 hrs by propidium iodide staining based flow cytometry (reference value: 32.80%)", "type": "functional"}, "[13]": {"tested_on": "A549", "assay": "Cell cycle arrest in human A549 cells assessed as accumulation at G2/M phase at 75 nM after 24 hrs by propidium iodide staining based flow cytometry (reference value: 8.36%)", "type": "functional"}, "[14]": {"tested_on": "A549", "assay": "Induction of apoptosis in human A549 cells assessed as early apoptotic cells at 75 nM after 24 hrs by Annexin V-FITC/propidium iodide staining based flow cytometry (reference value: 0.50%)", "type": "functional"}, "[15]": {"tested_on": "A549", "assay": "Induction of apoptosis in human A549 cells assessed as late apoptotic cells at 75 nM after 24 hrs by Annexin V-FITC/propidium iodide staining based flow cytometry (reference value: 2.47%)", "type": "functional"}, "[16]": {"tested_on": "A549", "assay": "Induction of apoptosis in human A549 cells assessed as late apoptotic cells at 25 nM after 24 hrs by Annexin V-FITC/propidium iodide staining based flow cytometry (reference value: 2.47%)", "type": "functional"}, "[17]": {"tested_on": "A549", "assay": "Induction of apoptosis in human A549 cells assessed as cell shrinkage after 24 hrs by phase contrast microscopy", "type": "functional, cell-based"}, "[18]": {"tested_on": "A549", "assay": "Induction of apoptosis in human A549 cells assessed as increase in cleaved caspase-3 level at 8 to 75 nM by Western blot method", "type": "functional, cell-based"}, "[19]": {"tested_on": "A549", "assay": "Induction of apoptosis in human A549 cells assessed as caspase-3 level at 8 to 75 nM by Western blot method", "type": "functional, cell-based"}, "[20]": {"tested_on": "Mus musculus", "assay": "Toxicity in BALB/c nude mouse xenografted with human Bel7402 cells assessed as body weight at 30 mg/kg, ip administered once in a week for two weeks starting from 6 days post tumor transplantation measured every 3 days for 21 days (reference value: 14.5 g)", "type": "organism-based", "details": "in vivo, 504 h"}, "[21]": {"tested_on": "Bel-7402", "assay": "Antitumor activity against human Bel7402 cells xenografted in BALB/c nude mouse assessed as tumor growth inhibition at 60 mg/kg, ip administered once in a week for two weeks starting from 6 days post tumor transplantation measured 27 to 30 days post tumor transplantation relative to control", "type": "functional", "details": "Bel-7402, ip, read-out: TGI"}, "[22]": {"tested_on": "Mus musculus", "assay": "Toxicity in Kunming mouse implanted with mouse H22 cells assessed as survival at 60 mg/kg, ip administered twice", "type": "organism-based", "details": "in vivo"}, "[23]": {"tested_on": "Mus musculus", "assay": "Toxicity in BALB/c nude mouse xenografted with human BGC823 cells assessed as mouse survival at 60 mg/kg, ip administered once in a week for two weeks starting from 6 days post tumor transplantation", "type": "organism-based", "details": "in vivo, 144 h"}, "[24]": {"tested_on": "Bel-7402", "assay": "Antitumor activity against human Bel7402 cells xenografted in BALB/c nude mouse assessed as tumor volume at 60 mg/kg, ip administered once in a week for two weeks starting from 6 days post tumor transplantation measured 27 to 30 days post tumor transplantation relative to control", "type": "functional"}, "[25]": {"tested_on": "Bel-7402", "assay": "Antitumor activity against human Bel7402 cells xenografted in BALB/c nude mouse assessed as tumor volume at 30 mg/kg, ip administered once in a week for two weeks starting from 6 days post tumor transplantation measured 27 to 30 days post tumor transplantation relative to control", "type": "functional"}, "[26]": {"tested_on": "Mus musculus", "assay": "Toxicity in BALB/c nude mouse xenografted with human BGC823 cells assessed as tumor volume at 60 mg/kg, ip administered once in a week for two weeks starting from 6 days post tumor transplantation and measured every 3 days during compound dosing for 15 days (reference value: […])", "details": "in vivo, 360 h"}, "[27]": {"tested_on": "Mus musculus", "assay": "Toxicity in BALB/c nude mouse xenografted with human BGC823 cells assessed as tumor volume at 30 mg/kg, ip administered once in a week for two weeks starting from 6 days post tumor transplantation and measured every 3 days during compound dosing for 15 days (reference value: […])", "details": "in vivo, 360 h"}}, "note": "pIC50: −log10 of the molar value. The source made the active and inactive calls. The rule behind the calls is not given here.", "data": [{"smiles": "CCc1c2c(nc3ccccc13)-c1cc3c(c(=O)n1C2)COC(=O)[C@@]3(CC)OC(=O)Cn1cc(F)c(=O)[nH]c1=O", "values": [{"measurement": "pIC50", "setting": "[1]", "result": 7.57}, {"measurement": "pIC50", "setting": "[2]", "result": 7.85}, {"measurement": "pIC50", "setting": "[3]", "result": 8.15}, {"measurement": "Activity", "setting": "[4]", "result": 21.9, "unit": "g"}, {"measurement": "Activity", "setting": "[5]", "result": 19.1, "unit": "g"}, {"measurement": "inhibition in vivo at 30 mg/kg", "setting": "[6]", "result": 89.7, "unit": "%"}, {"measurement": "Activity", "setting": "[7]", "result": "Non-Toxic"}, {"measurement": "T/C", "setting": "[8]", "result": 5.54, "unit": "%"}, {"measurement": "T/C", "setting": "[9]", "result": 12.65, "unit": "%"}, {"measurement": "viability at 0.008 µM", "setting": "[10]", "result": 80.2, "unit": "%"}, {"measurement": "Activity", "setting": "[11]", "result": 32.28, "unit": "%"}, {"measurement": "Activity", "setting": "[12]", "result": 36.5, "unit": "%"}, {"measurement": "Activity", "setting": "[13]", "result": 67.07, "unit": "%"}, {"measurement": "Activity", "setting": "[14]", "result": 23.7, "unit": "%"}, {"measurement": "Activity", "setting": "[15]", "result": 34.98, "unit": "%"}, {"measurement": "Activity", "setting": "[16]", "result": 26.6, "unit": "%"}, {"measurement": "Activity", "setting": "[17]", "result": "Dose-dependent effect"}, {"measurement": "Activity", "setting": "[18]", "result": "Active"}, {"measurement": "Activity", "setting": "[19]", "result": "Active"}, {"measurement": "Activity", "setting": "[20]", "result": "Non-Toxic"}, {"measurement": "inhibition in vivo at 60 mg/kg", "setting": "[21]", "result": 81.5, "unit": "%"}, {"measurement": "Activity", "setting": "[22]", "result": "Non-Toxic"}, {"measurement": "Activity", "setting": "[23]", "result": "Non-Toxic"}, {"measurement": "T/C", "setting": "[24]", "result": 24.53, "unit": "%"}, {"measurement": "T/C", "setting": "[25]", "result": 41.17, "unit": "%"}, {"measurement": "tumor volume", "setting": "[26]", "result": 143, "unit": "mm³"}, {"measurement": "tumor volume", "setting": "[27]", "result": 334, "unit": "mm³"}]}]}
